# According to patent US10532052B2, “Combination of a 6-oxo-1,6-dihydro-pyridazine derivative having anti-cancer activity with an EGFR inhibitor” (Merck Patent GmbH, priority 2014, dated 2020):
# What was measured:
# [1] = test system: human DFCI081 NSCLC xenograft; experiment: human DFCI081 patient derived NSCLC xenograft (PDX) model; assay type: in vivo; conditions: for tumor response class / median tumor volume (TV) change: female NCr nude mice; for tumor response class: 100 mg/kg each agent orally daily up to 18 days; for median tumor volume (TV) change: s.c. DFCI081 tumors, 100 mg/kg orally daily up to 18 days
# Method: Method: Female NCr nude mice (7 weeks old) where subcutaneously injected with human DFCI081 tumor cells and were divided into treatment groups (10 animals per group) after the tumors were established. […] Median tumor volume (TV) change in % were calculated and statistical analysis done with two way-RM ANOVA.
# [2] = test system: human NSCLC HCC827-GR-T790M xenograft; assay type: in vivo; conditions: female NCr nude mice, 100 mg/kg each agent orally daily, day 14
# Method: Background: The human NSCLC HCC827-GR-T790M is a EGFR del 19 mutant and c-Met amplified lung xenograft model which exogenous expression of the EGFR T790M resistant mutation.
# Method: Female NCr nude mice (7 weeks old) where subcutaneously injected with human HCC827-GR-T790M tumor cells and were divided into treatment groups (10 animals per group) after the tumors were established. […] Median tumor volume (TV) change in % were calculated at day 14, where the vehicle group was terminated and statistical analysis done with two way-RM ANOVA.
# [3] = test system: human DFCI081 NSCLC xenograft; conditions: background; due to the activated c-Met pathway; cited from earlier work
smiles,measurement,setting,value
"CN1CCC(COc2cnc(-c3cccc(Cn4nc(-c5cccc(C#N)c5)ccc4=O)c3)nc2)CC1.Cl.O [3-(1-{3-[5-(1-Methyl-piperidin-4-ylmethoxy)-pyrimidin-2-yl]-benzyl}-6-oxo-1,6-dihydro-pyridazin-3-yl)-benzonitrile hydrochloride hydrate]",day at which complete tumor regression/response was observed in all mice,[1]; 100 mg/kg each agent orally daily,15 days
same,tumor response class,[1],tumor regression
same,median tumor volume (TV) change,[1],−100%
C=CC(=O)Nc1cccc(Nc2nc(Nc3ccc(N4CCN(C(C)=O)CC4)cc3OC)ncc2C(F)(F)F)c1 [N-[3-[[2-[4-(4-acetylpiperazin-1-yl)-2-methoxy-anilino]-5-(trifluoromethyl)-pyrimidin-4-yl]amino]phenyl]prop-2-enamide],tumor response class,[2],tumors progressed
same,median tumor volume change,[2]; s.c. HCC827-GR-T790M tumors,81%
same,tumor response class,[1],tumor progressed
same,median tumor volume (TV) change,[1],700%
C#Cc1cccc(Nc2ncnc3cc(OCCOC)c(OCCOC)cc23)c1 [erlotinib],resistance of the model to EGFR inhibitor,[3],resistant
